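1) Cells in 96-well plates. 2) Compound, 48 h, 5 concentrations. 3) Linear interpolation between surrounding doses. 4) Unreached endpoint = highest concentration. TGI denotes the concentration required for complete inhibition of growth.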
Assays:
Test in all cases: inhibition of tumour cell growth, NCI panel, 48 h
OVCAR-5 ovarian = test system: OVCAR-5 ovarian
IGROV1 ovarian = test system: IGROV1 ovarian
NCI-H460 lung = test system: NCI-H460 lung
CCRF-CEM leukemia = test system: CCRF-CEM leukemia
A498 renal = test system: A498 renal
K-562 leukemia = test system: K-562 leukemia
EKVX NSCLC = test system: EKVX NSCLC
COLO 205 colon = test system: COLO 205 colon
UACC-257 melanoma = test system: UACC-257 melanoma
LOX IMVI melanoma = test system: LOX IMVI melanoma
MCF7 breast = test system: MCF7 breast
OVCAR-8 ovarian = test system: OVCAR-8 ovarian
SF-268 CNS = test system: SF-268 CNS
MDA-N = test system: MDA-N
SN12C renal = test system: SN12C renal
KM12 colon = test system: KM12 colon
NCI-H226 lung = test system: NCI-H226 lung
UACC-62 melanoma = test system: UACC-62 melanoma
NCI-H522 lung = test system: NCI-H522 lung
CAKI-1 renal = test system: CAKI-1 renal
SF-295 CNS = test system: SF-295 CNS
M14 melanoma = test system: M14 melanoma
HOP-62 NSCLC = test system: HOP-62 NSCLC
SF-539 CNS = test system: SF-539 CNS
A549 NSCLC = test system: A549 NSCLC
T-47D breast = test system: T-47D breast
SK-MEL-2 melanoma = test system: SK-MEL-2 melanoma
RPMI-8226 leukemia = test system: RPMI-8226 leukemia
SNB-19 CNS = test system: SNB-19 CNS
OVCAR-3 ovarian = test system: OVCAR-3 ovarian
UO-31 renal = test system: UO-31 renal
MDA-MB-435 = test system: MDA-MB-435
SK-OV-3 ovarian = test system: SK-OV-3 ovarian
SK-MEL-5 melanoma = test system: SK-MEL-5 melanoma
SW-620 colon = test system: SW-620 colon
NCI-H23 lung = test system: NCI-H23 lung
SR leukemia = test system: SR leukemia
HS 578T breast = test system: HS 578T breast
HCT-15 colon = test system: HCT-15 colon
HT29 colon = test system: HT29 colon
OVCAR-4 ovarian = test system: OVCAR-4 ovarian
NCI/ADR-RES ovarian = test system: NCI/ADR-RES ovarian
BT-549 breast = test system: BT-549 breast
HCT-116 colon = test system: HCT-116 colon
PC-3 prostate = test system: PC-3 prostate
MOLT-4 leukemia = test system: MOLT-4 leukemia
SK-MEL-28 melanoma = test system: SK-MEL-28 melanoma
HL-60(TB) leukemia = test system: HL-60(TB) leukemia
U251 CNS = test system: U251 CNS
MDA-MB-231 breast = test system: MDA-MB-231 breast
SNB-75 CNS = test system: SNB-75 CNS
ACHN renal = test system: ACHN renal
786-0 renal = test system: 786-0 renal
TK-10 renal = test system: TK-10 renal
DU-145 prostate = test system: DU-145 prostate
HCC-2998 colon = test system: HCC-2998 colon
MALME-3M melanoma = test system: MALME-3M melanoma
HOP-92 NSCLC = test system: HOP-92 NSCLC

SMILES: CC1COC(c2cn[nH]c2C(N)=O)C1O (stereo not given)
- TGI (OVCAR-5 ovarian): > 100 µM
- TGI (IGROV1 ovarian): > 100 µM
- TGI (NCI-H460 lung): > 100 µM
- TGI (CCRF-CEM leukemia): > 100 µM
- TGI (A498 renal): > 100 µM
- TGI (K-562 leukemia): > 100 µM
- TGI (EKVX NSCLC): > 100 µM
- TGI (COLO 205 colon): > 100 µM
- TGI (UACC-257 melanoma): > 100 µM
- TGI (LOX IMVI melanoma): > 100 µM
- TGI (MCF7 breast): > 100 µM
- TGI (OVCAR-8 ovarian): > 100 µM
- TGI (SF-268 CNS): > 100 µM
- TGI (MDA-N): > 100 µM
- TGI (SN12C renal): > 100 µM
- TGI (KM12 colon): > 100 µM
- TGI (NCI-H226 lung): > 100 µM
- TGI (UACC-62 melanoma): > 100 µM
- TGI (NCI-H522 lung): > 100 µM
- TGI (CAKI-1 renal): > 100 µM
- TGI (SF-295 CNS): > 100 µM
- TGI (M14 melanoma): > 100 µM
- TGI (HOP-62 NSCLC): > 100 µM
- TGI (SF-539 CNS): > 100 µM
- TGI (A549 NSCLC): > 100 µM
- TGI (T-47D breast): > 100 µM
- TGI (SK-MEL-2 melanoma): > 100 µM
- TGI (RPMI-8226 leukemia): > 100 µM
- TGI (SNB-19 CNS): > 100 µM
- TGI (OVCAR-3 ovarian): > 100 µM
- TGI (UO-31 renal): > 100 µM
- TGI (MDA-MB-435): > 100 µM
- TGI (SK-OV-3 ovarian): > 100 µM
- TGI (SK-MEL-5 melanoma): > 100 µM
- TGI (SW-620 colon): > 100 µM
- TGI (NCI-H23 lung): > 100 µM
- TGI (SR leukemia): > 100 µM
- TGI (HS 578T breast): > 100 µM
- TGI (HCT-15 colon): > 100 µM
- TGI (HT29 colon): > 100 µM
- TGI (OVCAR-4 ovarian): > 100 µM
- TGI (NCI/ADR-RES ovarian): > 100 µM
- TGI (BT-549 breast): > 100 µM
- TGI (HCT-116 colon): > 100 µM
- TGI (PC-3 prostate): > 100 µM
- TGI (MOLT-4 leukemia): > 100 µM
- TGI (SK-MEL-28 melanoma): > 100 µM
- TGI (HL-60(TB) leukemia): > 100 µM
- TGI (U251 CNS): > 100 µM
- TGI (MDA-MB-231 breast): > 100 µM
- TGI (SNB-75 CNS): > 100 µM
- TGI (ACHN renal): > 100 µM
- TGI (786-0 renal): > 100 µM
- TGI (TK-10 renal): > 100 µM
- TGI (DU-145 prostate): > 100 µM

SMILES: Cc1cccc(/C=N/NC(=S)Nc2ccc(Cl)cc2)n1
- TGI (OVCAR-5 ovarian): 73.3 µM
- TGI (IGROV1 ovarian): 12.7 µM
- TGI (HCC-2998 colon): 40.3 µM
- TGI (NCI-H460 lung): 15.9 µM
- TGI (CCRF-CEM leukemia): 42.8 µM
- TGI (K-562 leukemia): > 100 µM
- TGI (MALME-3M melanoma): 20.8 µM
- TGI (EKVX NSCLC): 23.1 µM
- TGI (COLO 205 colon): 17.6 µM
- TGI (UACC-257 melanoma): 18.9 µM
- TGI (LOX IMVI melanoma): 10.7 µM
- TGI (MCF7 breast): 25.9 µM
- TGI (OVCAR-8 ovarian): 33.7 µM
- TGI (SF-268 CNS): 17.4 µM
- TGI (MDA-N): 25.5 µM
- TGI (SN12C renal): 34 µM
- TGI (KM12 colon): 40.8 µM
- TGI (UACC-62 melanoma): 3.68 µM
- TGI (NCI-H522 lung): 4.93 µM
- TGI (CAKI-1 renal): 13.3 µM
- TGI (SF-295 CNS): 14.4 µM
- TGI (M14 melanoma): 7.69 µM
- TGI (HOP-62 NSCLC): 11.9 µM
- TGI (SF-539 CNS): 12.7 µM
- TGI (A549 NSCLC): 13.6 µM
- TGI (T-47D breast): > 100 µM
- TGI (SK-MEL-2 melanoma): 25.6 µM
- TGI (RPMI-8226 leukemia): > 100 µM
- TGI (SNB-19 CNS): 22.2 µM
- TGI (OVCAR-3 ovarian): 61 µM
- TGI (UO-31 renal): 12.5 µM
- TGI (MDA-MB-435): 17.5 µM
- TGI (SK-OV-3 ovarian): 10.8 µM
- TGI (SK-MEL-5 melanoma): 8.97 µM
- TGI (SW-620 colon): 20 µM
- TGI (NCI-H23 lung): 34.9 µM
- TGI (SR leukemia): > 100 µM
- TGI (HS 578T breast): 17.5 µM
- TGI (HCT-15 colon): 23.1 µM
- TGI (HT29 colon): 54.5 µM
- TGI (HOP-92 NSCLC): 20 µM
- TGI (OVCAR-4 ovarian): > 100 µM
- TGI (NCI/ADR-RES ovarian): 26 µM
- TGI (BT-549 breast): 30.4 µM
- TGI (HCT-116 colon): 12.9 µM
- TGI (PC-3 prostate): 26.2 µM
- TGI (MOLT-4 leukemia): 10.9 µM
- TGI (SK-MEL-28 melanoma): 20 µM
- TGI (U251 CNS): 13.5 µM
- TGI (MDA-MB-231 breast): 15.8 µM
- TGI (SNB-75 CNS): 16.1 µM
- TGI (ACHN renal): 11.3 µM
- TGI (786-0 renal): 12.1 µM
- TGI (TK-10 renal): 71.7 µM
- TGI (DU-145 prostate): > 100 µM

From PubChem BioAssay (NCI)
